Laboratory results published in patent US6716834B2, “Thiochromane derivatives and their use as thrombin inhibitors” (AstraZeneca AB, priority 2000, dated 2004).

Assays:
[1] = Test G: Metabolic Activation of Prodrug Compounds in vitro; assay type: in vitro ADME, human or rat
Method: Metabolic Activation of Prodrug Compounds in vitro
Prodrug compounds of formula IA are incubated at 37° C. with liver microsomes or 10 000 g (referring to the centrifuge speed) supernatant fractions (i.e. s9 fraction) prepared from human or rat liver homogenate. The total protein concentration in the incubations are 1 or 3 mg/mL dissolved in 0.05 mol/L TRIS buffer (pH 7.4), and with the cofactors NADH (2.5 mmol/L) and NADPH (0. 8 mmol/L) present. The total volume of the incubate is 1.2 mL. The initial prodrug concentrations are 5 or 10 ? mol/L. Samples are collected from the incubate at regular is intervals more than 60 minutes after the start of the incubations. Samples (25 ? L) from the incubate are mixed with an equal volume of human or rat plasma and an appropriate amount of thrombin, and the clotting time (i.e. thrombin time) is measured on a coagulometer (KC 10; Amelung). The amount of “active” thrombin inhibitor formed is estimated by the use of standard curves relating the thrombin time in pooled citrated human or rat plasma to known concentrations of the corresponding “active thrombin inhibitor”.
The amount of “active” thrombin inhibitor is alternatively, or in addition to the above-mentioned method, estimated by the use of LC-MS.

[2] = target: T1, Human thrombin (Homo sapiens, UniProt P00734); test: Test A: Determination of Thrombin Clotting Time (TT); assay type: biochemical; conditions: concentration of inhibitor that doubles the thrombin clotting time in plasma
T1 construct: purchased Sigma Chem. Co or Hematologic Technologies T 6769
Method: Determination of Thrombin Clotting Time (TT)
The inhibitor solution (25 ? L) is incubated with plasma (25 ? L) for three minutes. Human thrombin (T 6769; Sigma Chem. Co or Hematologic Technologies) in buffer solution, pH 7.4 (25 ? L, 4.0 NIH units/mL), is then added and the clotting time measured in an automatic device (KC 10; Amelung).
The thrombin clotting time (TT) is expressed as absolute values (seconds) as well as the ratio of TT without inhibitor (TT0) to TT with inhibitor (TTi). The latter ratios (range 1-0) are plotted against the concentration of inhibitor (log transformed) and fitted to sigmoidal dose-response curves according to the equation
where: a=maximum range, i.e. 1; s=slope of the dose-response curve; and IC50=the concentration of inhibitor that doubles the clotting time. The calculations are processed on a PC using the software program GraFit Version 3, setting equation equal to: Start at 0, define end=1 (Erithacus Software, Robin Leatherbarrow, Imperial College of Science, London, UK).

[3] = Test E: Determination of Thrombin Time ex vivo (bioavailability of active inhibitor after prodrug administration); assay type: in vivo; conditions: rat
From the text: Determination of Thrombin Time ex vivo
The inhibition of thrombin after oral or parenteral administration of the compounds of formula I, dissolved in ethanol:Solutol3:water (5:5:90), is examined in conscious rats which, one or two days prior to the experiment, are equipped with a catheter for blood sampling from the carotid artery. On the experimental day blood samples are withdrawn at fixed times after the administration of the compound into plastic tubes containing 1 part sodium citrate solution (0.13 mol per L) and 9 parts of blood. The tubes are centrifuged to obtain platelet poor plasma. The plasma is used for determination of thrombin time or ecarin clotting time (ECT) as described below.
The citrated rat plasma, 100 ? L, is diluted with a saline solution, 0.9%, 100 ? […] The clotting time is measured in an automatic device (KC 10, Amelung, Germany). […]
Based on the estimated plasma concentrations of the active thrombin inhibitor (which assumes that thrombin time or ECT prolongation is caused by the aforementioned compound) in the rat, the area under the curve after oral and/or parenteral administration of the corresponding prodrug compound of formula I is calculated (AUCpd) using the trapezoidal rule and extrapolation of data to infinity.
The bioavailability of the active thrombin inhibitor after oral or parenteral administration of the prodrug is calculated as below: […]

Structure (SMILES) | IC50 [2] [nM] | also measured
COc1cc(Cl)cc2c1S(=O)(=O)CC[C@]2(O)C(=O)N1CC[C@H]1C(=O)NCc1ccc(C(N)=NC(=O)OC2CCCC2)cc1 [Example 5, (R)-6-Chloro-4-hydroxy-8-methoxy-1,1-dioxothiochromane-4-yl-C(O)-Aze-Pab(C(O)-O-cyclopentyl)] |  | oral and/or parenteral bioavailability as the corresponding active inhibitor (free amidine) [1]: exhibit oral and/or parenteral bioavailability in the rat as the corresponding active inhibitor (free amidine)
COc1cc(Cl)cc2c1S(=O)(=O)CC[C@]2(O)C(=O)N1CC[C@H]1C(=O)NCc1ccc(C(N)=NOCc2ccccc2)cc1 [Example 4, (R)-6-Chloro-4-hydroxy-8-methoxy-1,1-dioxothiochromane-4-yl-C(O)-Aze-Pab(OBn)] |  | oral and/or parenteral bioavailability as the corresponding active inhibitor (free amidine) [1]: exhibit oral and/or parenteral bioavailability in the rat as the corresponding active inhibitor (free amidine)
COc1cc(Cl)cc2c1S(=O)(=O)CC[C@]2(O)C(=O)N1CC[C@H]1C(=O)NCc1ccc(C(=N)N)cc1 [Example 1, (R)-6-Chloro-4-hydroxy-8-methoxy-1,1-dioxothiochromane-4-yl-C(O)-Aze-Pab] | < 50 | 
N=C(N)c1ccc(CNC(=O)[C@@H]2CCN2C(=O)[C@@]2(O)CCS(=O)(=O)c3ccc(Cl)cc32)cc1 [Example 3, (R)-6-Chloro-4-hydroxy-1,1-dioxothiochromane-4-yl-C(O)-Aze-Pab] | < 50 | 
N=C(N)c1ccc(CNC(=O)C2CCN2C(=O)C2(O)CCS(=O)(=O)c3c(OC(F)F)cc(Cl)cc32)cc1 (centres unmarked) [Example 7, 6-Chloro-8-difluoromethoxy-4-hydroxy-1,1-dioxothiochromane-4-yl-C(O)-Aze-Pab] | < 50 | 
CON=C(N)c1ccc(CNC(=O)[C@@H]2CCN2C(=O)[C@@]2(O)CCS(=O)(=O)c3c(Cl)cc(Cl)cc32)cc1 [Example 6, (R)-6,8-Dichloro-4-hydroxy-1,1-dioxothiochromane-4-yl-C(O)-Aze-Pab(OMe)] |  | oral and/or parenteral bioavailability as the corresponding active inhibitor (free amidine) ([1]; Test G as printed): exhibit oral and/or parenteral bioavailability in the rat as the corresponding active inhibitor (free amidine); oral and/or parenteral bioavailability as the corresponding active inhibitor (free amidine) [3]: exhibit oral and/or parenteral bioavailability in the rat as the corresponding active inhibitor (free amidine)
COc1cc(Cl)cc2c1[S+]([O-])CCC2(O)C(=O)N1CCC1C(=O)NCc1ccc(C(=N)N)cc1 (single isomer, unassigned) [Example 8, 6-Chloro-4-(R)-hydroxy-8-methoxy-1-(R or S)-oxo-thiochromane-4-yl-C(O)-Aze-PabxTFA] | < 50 | 
